According to ChEMBL document CHEMBL6087464, “Design, Synthesis, and Biological Evaluation of 3,4-Dihydroisoquinolin-1(2H)-one Derivatives as Protein Arginine Methyltransferase 5 Inhibitors for the Treatment of Non-Hodgkin's Lymphoma” (J Med Chem, 2025):
Active and inactive are the calls of the source. No cut-off for these calls is given here.

How the values were obtained:
Z-138 [1] = experiment: Induction of apoptosis in human Z138 cells assessed as late apoptotic cells at 50.0 nM incubated for 168 hrs by Annexin V-FITC/PI staining based flow cytometric analysis (reference value: 0.37 %); format: functional
[2] = Half-life in Sprague-Dawley rat at 10 mg/kg, po by LC-MS/MS analysis; format: ADME, organism-based; settings: Sprague-Dawley, in vivo
[3] = biological target: Protein arginine N-methyltransferase 6 (Homo sapiens, UniProt Q96LA8); experiment: Inhibition of PRMT6 (unknown origin)
Chain of Protein arginine N-methyltransferase 6 (Q96LA8 whole entry): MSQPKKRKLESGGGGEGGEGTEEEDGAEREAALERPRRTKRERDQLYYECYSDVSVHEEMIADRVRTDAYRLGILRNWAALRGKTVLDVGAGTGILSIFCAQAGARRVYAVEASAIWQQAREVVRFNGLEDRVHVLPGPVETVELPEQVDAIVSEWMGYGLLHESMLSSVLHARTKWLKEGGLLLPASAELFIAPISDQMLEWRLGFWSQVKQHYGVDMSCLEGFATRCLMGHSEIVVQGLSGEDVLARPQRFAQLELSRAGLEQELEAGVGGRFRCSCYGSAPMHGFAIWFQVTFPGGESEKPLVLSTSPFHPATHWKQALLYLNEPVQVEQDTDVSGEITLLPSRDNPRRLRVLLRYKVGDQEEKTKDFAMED

[4] = Hematological toxicity in human CD34-positive hematopoietic stem/progenitor cell supplemented with megakaryocytic lineage assessed as reduction in cell viability incubated for 14 days by luminometric analysis; format: cell-based
Z-138 [5] = experiment: Induction of apoptosis in human Z138 cells assessed as viable cells at 50.0 nM incubated for 168 hrs by Annexin V-FITC/PI staining based flow cytometric analysis (reference value: 94.4 %); format: functional; settings: read-out: Activity
Z-138 [6] = experiment: Induction of apoptosis in human Z138 cells assessed as necrotic cells at 50.0 nM incubated for 168 hrs by Annexin V-FITC/PI staining based flow cytometric analysis (reference value: 3.54 %); format: functional
[7] = Half-life in Sprague-Dawley rat at 2 mg/kg, iv by LC-MS/MS analysis; format: ADME, organism-based; settings: in vivo
[8] = biological target: Protein arginine N-methyltransferase 8 (Homo sapiens, UniProt Q9NR22); experiment: Inhibition of PRMT8 (unknown origin)
Chain of Protein arginine N-methyltransferase 8 (Q9NR22 whole entry): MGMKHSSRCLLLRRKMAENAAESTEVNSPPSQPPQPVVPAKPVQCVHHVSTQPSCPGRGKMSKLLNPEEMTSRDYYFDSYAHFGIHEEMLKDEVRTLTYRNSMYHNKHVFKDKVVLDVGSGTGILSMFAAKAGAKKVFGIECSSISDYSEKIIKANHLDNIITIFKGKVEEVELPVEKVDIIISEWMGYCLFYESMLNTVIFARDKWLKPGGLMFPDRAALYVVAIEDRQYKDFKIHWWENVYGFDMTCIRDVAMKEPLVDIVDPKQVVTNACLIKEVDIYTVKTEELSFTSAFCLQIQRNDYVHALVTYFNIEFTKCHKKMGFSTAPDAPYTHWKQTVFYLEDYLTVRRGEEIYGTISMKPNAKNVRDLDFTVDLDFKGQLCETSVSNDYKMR

[9] = AUC (0 to t) in Sprague-Dawley rat at 2 mg/kg, iv by LC-MS/MS analysis; format: ADME, organism-based; settings: in vivo
[10] = Clearance in Sprague-Dawley rat at 2 mg/kg, iv by LC-MS/MS analysis; format: ADME, organism-based; settings: in vivo
Z-138 [11] = experiment: Induction of apoptosis in human Z138 cells assessed as early apoptotic cells at 50.0 nM incubated for 168 hrs by Annexin V-FITC/PI staining based flow cytometric analysis (reference value: 1.68 %); format: functional
[12] = biological target: Protein arginine N-methyltransferase 1 (Homo sapiens, UniProt Q99873); experiment: Inhibition of PRMT1 (unknown origin)
Chain of Protein arginine N-methyltransferase 1 (Q99873 whole entry): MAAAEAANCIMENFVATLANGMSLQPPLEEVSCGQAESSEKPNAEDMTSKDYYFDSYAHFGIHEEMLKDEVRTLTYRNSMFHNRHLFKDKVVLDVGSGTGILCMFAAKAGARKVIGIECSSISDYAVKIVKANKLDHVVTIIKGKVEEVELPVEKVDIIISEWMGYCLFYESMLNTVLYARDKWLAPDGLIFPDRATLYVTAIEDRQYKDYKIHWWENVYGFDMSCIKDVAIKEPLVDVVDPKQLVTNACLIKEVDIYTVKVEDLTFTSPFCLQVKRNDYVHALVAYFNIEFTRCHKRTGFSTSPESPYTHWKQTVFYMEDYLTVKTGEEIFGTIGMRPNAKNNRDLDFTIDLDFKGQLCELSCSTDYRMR

Z-138 [13] = experiment: Induction of apoptosis in human Z138 cells assessed as late apoptotic cells at 0.4 nM incubated for 168 hrs by Annexin V-FITC/PI staining based flow cytometric analysis (reference value: 0.37 %); format: functional
[14] = Hematological toxicity in human CD34-positive hematopoietic stem/progenitor cell supplemented with myeloid lineage assessed as reduction in cell viability incubated for 14 days by luminometric analysis; format: cell-based
[15] = Tmax in Sprague-Dawley rat at 10 mg/kg, po by LC-MS/MS analysis; format: ADME, organism-based; settings: Sprague-Dawley, in vivo, read-out: Tmax
Z-138 [16] = experiment: Cell cycle arrest in human Z138 cells assessed as accumulation of cells at G0/G1 phase incubated for 168 hrs by RNase A/PI staining based flow cytometric analysis; format: functional; settings: dose 0.4-50 nM
[17] = biological target: Voltage-gated inwardly rectifying potassium channel KCNH2 (Homo sapiens, UniProt Q12809); experiment: Inhibition of human ERG; format: toxicity
Chain of Voltage-gated inwardly rectifying potassium channel KCNH2 (Q12809 whole entry): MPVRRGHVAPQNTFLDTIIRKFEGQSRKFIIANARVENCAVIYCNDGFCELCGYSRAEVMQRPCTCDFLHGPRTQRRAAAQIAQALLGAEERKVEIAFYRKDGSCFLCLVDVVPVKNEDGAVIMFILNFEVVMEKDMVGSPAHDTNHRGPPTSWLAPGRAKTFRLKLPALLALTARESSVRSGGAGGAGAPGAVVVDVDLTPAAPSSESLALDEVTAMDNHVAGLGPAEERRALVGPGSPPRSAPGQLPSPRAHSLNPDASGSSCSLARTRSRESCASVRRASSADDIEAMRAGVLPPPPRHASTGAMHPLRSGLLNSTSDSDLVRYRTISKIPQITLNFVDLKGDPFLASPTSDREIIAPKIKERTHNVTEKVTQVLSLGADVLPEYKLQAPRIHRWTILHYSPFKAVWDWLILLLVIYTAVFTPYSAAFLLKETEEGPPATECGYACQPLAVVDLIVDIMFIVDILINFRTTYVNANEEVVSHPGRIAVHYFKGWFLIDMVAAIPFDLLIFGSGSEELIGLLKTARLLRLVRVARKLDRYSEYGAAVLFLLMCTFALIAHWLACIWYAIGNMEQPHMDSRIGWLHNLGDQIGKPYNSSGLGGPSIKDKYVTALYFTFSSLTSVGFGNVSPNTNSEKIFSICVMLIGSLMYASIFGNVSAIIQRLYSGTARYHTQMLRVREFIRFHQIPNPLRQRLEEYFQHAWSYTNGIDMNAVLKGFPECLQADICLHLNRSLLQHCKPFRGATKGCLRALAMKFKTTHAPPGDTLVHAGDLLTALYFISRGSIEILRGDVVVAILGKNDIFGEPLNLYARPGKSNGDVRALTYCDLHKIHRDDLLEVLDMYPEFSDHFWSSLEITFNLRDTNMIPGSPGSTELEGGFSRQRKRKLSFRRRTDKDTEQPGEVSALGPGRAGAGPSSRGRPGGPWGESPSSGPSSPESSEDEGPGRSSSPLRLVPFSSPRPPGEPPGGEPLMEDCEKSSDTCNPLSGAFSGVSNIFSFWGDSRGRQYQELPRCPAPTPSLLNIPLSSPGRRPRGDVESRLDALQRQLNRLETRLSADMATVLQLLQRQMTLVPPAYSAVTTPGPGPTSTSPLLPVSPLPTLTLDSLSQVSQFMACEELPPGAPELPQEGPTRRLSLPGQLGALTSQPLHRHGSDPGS

[18] = Cmax in Sprague-Dawley rat at 10 mg/kg, po by LC-MS/MS analysis; format: ADME, organism-based; settings: Sprague-Dawley, in vivo, read-out: Cmax
PRMT5/MEP50 complex [19] = biological target: PRMT5/MEP50 complex (Homo sapiens, UniProt O14744+Q9BQA1); experiment: Binding affinity to PRMT5/MEP50 (unknown origin) at 5 uM by SPR analysis; format: protein-complex assay
Cytochrome P450 2B6 = Cytochrome P450 2B6 (Homo sapiens, UniProt P20813); experiment: Inhibition of CYP2B6 (unknown origin); format: ADME
Chain of Cytochrome P450 2B6 (P20813 whole entry): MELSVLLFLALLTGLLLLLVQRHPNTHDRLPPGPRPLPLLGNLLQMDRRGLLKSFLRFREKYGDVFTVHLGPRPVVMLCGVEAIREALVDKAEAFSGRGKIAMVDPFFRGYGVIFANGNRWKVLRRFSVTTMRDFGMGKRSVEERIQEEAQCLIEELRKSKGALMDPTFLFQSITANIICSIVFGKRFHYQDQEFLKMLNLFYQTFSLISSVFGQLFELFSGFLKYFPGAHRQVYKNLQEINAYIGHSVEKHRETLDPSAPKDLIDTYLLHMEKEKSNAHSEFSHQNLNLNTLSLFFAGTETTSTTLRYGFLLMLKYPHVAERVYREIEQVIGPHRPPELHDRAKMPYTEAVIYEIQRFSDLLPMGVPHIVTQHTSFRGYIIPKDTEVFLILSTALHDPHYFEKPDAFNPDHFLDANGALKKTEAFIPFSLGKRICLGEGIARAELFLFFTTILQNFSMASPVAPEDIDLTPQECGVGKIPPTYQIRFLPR

[20] = Toxicity in Sprague-Dawley rat assessed as morphological changes in stomach at 31.25 to 125 mg/kg, po administered once a day for 14 days by H and E staining based analysis; format: organism-based; settings: in vivo, 336 h, dose 31.25-125 mg/kg, time 14 day
[21] = Toxicity in Sprague-Dawley rat assessed as animal death at 31.25 to 125 mg/kg, po administered once a day for 14 days; format: organism-based; settings: in vivo, 336 h, dose 31.25-125 mg/kg, time 14 day
PRMT5/MEP50 complex [22] = biological target: PRMT5/MEP50 complex (Homo sapiens, UniProt O14744); experiment: Inhibition of recombinant N-terminal FLAG-tagged human full-length PRMT5/full length human MEP50 extracted from baculovirus expression system using [3H]-SAM as substrate preincubated for 15 mins followed by substrate addition and measured after 60 mins by multimode plate reader analysis
Chain of PRMT5/MEP50 complex (Homo sapiens, UniProt O14744) (O14744 whole entry): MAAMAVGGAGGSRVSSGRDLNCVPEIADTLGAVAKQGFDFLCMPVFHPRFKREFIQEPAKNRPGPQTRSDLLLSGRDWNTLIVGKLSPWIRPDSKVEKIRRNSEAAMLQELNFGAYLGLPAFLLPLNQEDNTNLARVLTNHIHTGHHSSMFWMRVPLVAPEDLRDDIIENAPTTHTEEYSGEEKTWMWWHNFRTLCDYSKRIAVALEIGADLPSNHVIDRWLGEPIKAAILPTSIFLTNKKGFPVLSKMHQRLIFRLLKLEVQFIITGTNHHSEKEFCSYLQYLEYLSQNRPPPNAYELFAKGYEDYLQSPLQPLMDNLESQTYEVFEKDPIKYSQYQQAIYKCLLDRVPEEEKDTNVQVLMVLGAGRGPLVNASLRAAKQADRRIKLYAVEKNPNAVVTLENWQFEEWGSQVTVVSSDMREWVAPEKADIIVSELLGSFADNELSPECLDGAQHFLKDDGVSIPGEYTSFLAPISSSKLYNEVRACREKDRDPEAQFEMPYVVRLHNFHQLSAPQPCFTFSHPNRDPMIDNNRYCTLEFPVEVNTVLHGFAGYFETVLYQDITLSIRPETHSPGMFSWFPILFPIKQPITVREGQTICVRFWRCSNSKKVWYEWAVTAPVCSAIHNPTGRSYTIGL
Chain of PRMT5/MEP50 complex (Homo sapiens, UniProt O14744) (Q9BQA1 whole entry, further chain): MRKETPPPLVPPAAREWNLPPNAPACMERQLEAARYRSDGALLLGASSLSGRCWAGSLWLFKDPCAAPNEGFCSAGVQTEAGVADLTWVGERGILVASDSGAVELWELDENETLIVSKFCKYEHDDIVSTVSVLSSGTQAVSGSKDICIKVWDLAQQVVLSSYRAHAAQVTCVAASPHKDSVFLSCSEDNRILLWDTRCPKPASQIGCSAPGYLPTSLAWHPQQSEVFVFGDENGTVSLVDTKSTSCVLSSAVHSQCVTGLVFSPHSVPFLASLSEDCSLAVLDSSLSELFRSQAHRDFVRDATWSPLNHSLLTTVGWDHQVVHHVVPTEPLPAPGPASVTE

A549 = experiment: Antiproliferative activity against human A549 cells measured after 4 to 5 days by CCK-8 assay; format: functional, cell-based
Cytochrome P450 1A2 = Cytochrome P450 1A2 (Homo sapiens, UniProt P05177); experiment: Inhibition of CYP1A2 (unknown origin); format: ADME
Chain of Cytochrome P450 1A2 (P05177 whole entry): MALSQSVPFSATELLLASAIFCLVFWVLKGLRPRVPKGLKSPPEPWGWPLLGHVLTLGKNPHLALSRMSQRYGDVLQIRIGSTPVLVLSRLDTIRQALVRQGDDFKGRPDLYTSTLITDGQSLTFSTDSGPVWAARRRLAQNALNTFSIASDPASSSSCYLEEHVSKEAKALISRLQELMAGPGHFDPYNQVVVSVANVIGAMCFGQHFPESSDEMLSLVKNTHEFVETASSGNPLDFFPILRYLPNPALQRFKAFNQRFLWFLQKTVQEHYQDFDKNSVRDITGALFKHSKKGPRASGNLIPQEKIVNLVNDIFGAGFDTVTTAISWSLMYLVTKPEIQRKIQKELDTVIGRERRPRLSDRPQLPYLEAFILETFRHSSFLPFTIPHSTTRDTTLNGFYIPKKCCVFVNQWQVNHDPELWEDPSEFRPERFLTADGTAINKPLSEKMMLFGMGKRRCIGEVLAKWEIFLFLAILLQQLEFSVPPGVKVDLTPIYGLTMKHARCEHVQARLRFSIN

[23] = Toxicity in Sprague-Dawley rat assessed as morphological changes in thymus at 31.25 to 125 mg/kg, po administered once a day for 14 days by H and E staining based analysis; format: organism-based; settings: in vivo, 336 h, dose 31.25-125 mg/kg, time 14 day
[24] = Toxicity in Sprague-Dawley rat assessed as structural changes in thymus at 31.25 to 125 mg/kg, po administered once a day for 14 days by H and E staining based analysis; format: organism-based; settings: in vivo, 336 h, dose 31.25-125 mg/kg, time 14 day
[25] = Toxicity in Sprague-Dawley rat assessed as morphological changes in spleen at 31.25 to 125 mg/kg, po administered once a day for 14 days by H and E staining based analysis; format: organism-based; settings: in vivo, 336 h, dose 31.25-125 mg/kg, time 14 day
[26] = Toxicity in Sprague-Dawley rat assessed as structural changes in stomach at 31.25 to 125 mg/kg, po administered once a day for 14 days by H and E staining based analysis; format: organism-based; settings: in vivo, 336 h, dose 31.25-125 mg/kg, time 14 day
NCI-H1975 = experiment: Antiproliferative activity against human NCI-H1975 cells measured after 4 to 5 days by CCK-8 assay; format: functional, cell-based
[27] = Toxicity in female SCID.BG […] mouse xenografted with human Z138 cells assessed as body weight loss at 12.5 to 50 mg/kg, po administered twice a day for 21 days; format: organism-based; settings: in vivo, 504 h, dose 12.5-50 mg/kg, time 21 day
[28] = Protein binding in mouse plasma; format: ADME, cell-free; settings: read-out: PPB (converted)
[29] = Metabolic stability in monkey liver microsomes assessed as half-life at 1 uM measured upto 240 mins; format: ADME, Macaca mulatta, Microsome; settings: rhesus monkey
Z-138 [30] = experiment: Antitumor activity against human Z138 cells xenografted in female SCID.BG nude mouse assessed as tumor growth inhibition at 12.5 mg/kg, po administered twice a day for 21 days relative to control; format: functional; settings: Z-138, 504 h, time 21 day, read-out: TGI
[31] = Metabolic stability in rat liver microsomes assessed as half-life at 1 uM measured upto 240 mins; format: ADME, Microsome
Z-138 [32] = experiment: Antiproliferative activity against PRMT5 knockout human Z138 cells measured after 7 days by CellTiter-Glo luminescence cell viability assay; format: functional, cell-based; settings: Z-138, 168 h
[33] = Metabolic stability in dog liver microsomes assessed as half-life at 1 uM measured upto 240 mins; format: ADME, Canis lupus familiaris, Microsome
Cytochrome P450 2C9 = Cytochrome P450 2C9 (Homo sapiens, UniProt P11712); experiment: Inhibition of CYP2C9 (unknown origin); format: ADME
Chain of Cytochrome P450 2C9 (P11712 whole entry): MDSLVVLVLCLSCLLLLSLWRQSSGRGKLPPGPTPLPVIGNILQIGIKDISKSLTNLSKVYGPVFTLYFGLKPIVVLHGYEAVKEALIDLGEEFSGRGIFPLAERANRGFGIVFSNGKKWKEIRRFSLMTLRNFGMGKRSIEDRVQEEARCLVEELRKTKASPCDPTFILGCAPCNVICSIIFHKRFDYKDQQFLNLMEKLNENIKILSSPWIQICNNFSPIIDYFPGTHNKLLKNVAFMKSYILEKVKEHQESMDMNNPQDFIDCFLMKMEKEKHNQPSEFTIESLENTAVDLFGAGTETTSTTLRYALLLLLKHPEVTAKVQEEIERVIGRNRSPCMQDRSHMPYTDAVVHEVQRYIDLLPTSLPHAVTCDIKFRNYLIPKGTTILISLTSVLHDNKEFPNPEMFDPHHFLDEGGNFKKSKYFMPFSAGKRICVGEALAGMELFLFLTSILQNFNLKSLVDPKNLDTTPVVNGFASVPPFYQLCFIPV

[34] = Toxicity in Sprague-Dawley rat assessed as body weight loss at 31.25 to 125 mg/kg, po administered once a day for 14 days; format: organism-based; settings: in vivo, 336 h, dose 31.25-125 mg/kg, time 14 day
Ishikawa = experiment: Antiproliferative activity against human Ishikawa cells measured after 4 to 5 days by CCK-8 assay; format: functional, cell-based
[35] = Protein binding in human plasma; format: ADME, cell-free; settings: read-out: PPB (converted)

## CC(=O)N1CCC(Nc2cc(C(=O)NC[C@H](O)CN3CCc4ccccc4C3)ncn2)CC1 [PEMRAMETOSTAT]
Z-138 [1]
  Activity: 7.38%
[2]
  half-life: 36 min
[3]
  IC50: > 10000 nM
[4]
  IC50 at 14 days: 55 nM
Z-138 [5]
  viability at 0.05 µM: 53.4%
Z-138 [6]
  Activity: 5.13%
[7]
  half-life: 18 min
[8]
  IC50: > 10000 nM
[9]
  AUC(0-t): 598 ng·h/mL
[10]
  clearance: 56.7 mL/min/kg
Z-138 [11]
  Activity: 34.1%
[12]
  IC50: > 10000 nM
Z-138 [13]
  Activity: 0.33%
[14]
  IC50 at 14 days: 222 nM
[15]
  Tmax: 78 min
Z-138 [16]
  Activity: Dose-dependent-effect
[17]
  IC50: > 15000 nM
[18]
  Cmax: 355 ng/mL

## CC(=O)N1CC2(CC(Nc3cc4c(cn3)C3(CC3)CN(C[C@H](O)CN3CCc5ccccc5C3)C4=O)C2)C1
PRMT5/MEP50 complex [19]
  Activity: Active
Cytochrome P450 2B6
  IC50: > 50000 nM
Z-138 [1]
  Activity: 11.4%
[20]
  Activity: Non-toxic
[2]
  half-life: 132 min
[21]
  Activity: Non-toxic
[3]
  IC50: > 10000 nM
[4]
  IC50 at 14 days: 106 nM
Z-138 [5]
  viability at 0.05 µM: 7.61%
PRMT5/MEP50 complex [22]
  IC50: 20.7 nM
Z-138 [6]
  Activity: 2.87%
[7]
  half-life: 24 min
A549
  IC50: 13.7 nM
Cytochrome P450 1A2
  IC50: > 50000 nM
[23]
  Activity: Non-toxic
[8]
  IC50: > 10000 nM
[24]
  Activity: Non-toxic
[25]
  Activity: Non-toxic
[9]
  AUC(0-t): 771 ng·h/mL
[26]
  Activity: Non-toxic
NCI-H1975
  IC50: 0.95 nM
[10]
  clearance: 41.7 mL/min/kg
[27]
  Activity: Non-toxic
[28]
  fraction unbound: 0.0701
[29]
  half-life at 1 µM: 18.2 min
Z-138 [30]
  inhibition in vivo at 12.5 mg/kg: 104%
[31]
  half-life at 1 µM: 85.6 min
Z-138 [32]
  IC50: > 10000 nM
Z-138 [11]
  Activity: 78.2%
[33]
  half-life at 1 µM: 152 min
Cytochrome P450 2C9
  IC50: > 50000 nM
[12]
  IC50: > 10000 nM
Z-138 [13]
  Activity: 0.44%
[34]
  Activity: Non-toxic
Ishikawa
  IC50: 5.47 nM
[14]
  IC50 at 14 days: 511 nM
[15]
  Tmax: 6 min
Z-138 [16]
  Activity: Dose-dependent-effect
[17]
  IC50: > 15000 nM
[35]
  fraction unbound: 0.106
[18]
  Cmax: 894 ng/mL
